# Assay results as given in ChEMBL document CHEMBL1136837, “Unified QSAR approach to antimicrobials. 4. Multi-target QSAR modeling and comparative multi-distance study of the giant components of antiviral drug-drug complex networks” (Bioorg Med Chem, 2009).
# Tested on: Human immunodeficiency virus 1
# Assay: Antiviral activity against HIV1
# Format: functional, organism-based
row,IC50 [µM],Compound
1,100,C=C[C@@]1(CO)C=C[C@H](n2cc(C)c(=O)[nH]c2=O)O1
2,100,O=c1ccn([C@H]2S[C@@H](CO)C=C2F)c(=O)[nH]1
3,100,Cc1cn([C@H]2S[C@@H](CO)C=C2F)c(=O)[nH]c1=O
4,100,O=C(O)c1ccc2ccc(/C=C/c3cc(O)cc(/C=C/c4ccc5ccc(C(=O)O)c(O)c5n4)c3)nc2c1O
5,2.13,O=C1CSC(c2c(F)cccc2Cl)N1c1ccc(Cl)cn1 (centres undefined)
6,0.059,Cc1cc(C)nc(N2C(=O)CSC2c2c(F)cccc2F)c1 (centres undefined)
7,0.042,Cc1cc(C)nc(N2C(=O)CSC2c2c(F)cccc2Cl)c1 (centres undefined)
8,7.19,O=C1CSC(c2c(F)cccc2F)N1c1ccc(Cl)cn1 (centres undefined)
9,0.064,O=C1CSC(c2c(F)cccc2Cl)N1c1cccc(Br)n1 (centres undefined)
10,0.099,Cc1ccnc(N2C(=O)CSC2c2c(F)cccc2Cl)c1 (centres undefined)
11,60,CCn1c(C(=O)CC(=O)C(=O)OC)cc2ccccc21
12,31,COC(=O)C(=O)CC(=O)c1cn(C)c2cc3c(cc12)OCO3
13,106,COC(=O)C(=O)CC(=O)c1cc2ccccc2n1C
14,0.0024,Cc1cc(OCCCS(N)(=O)=O)ccc1NC(=O)COc1ccc(Cl)cc1C(=O)c1cc(F)cc(C(F)(F)F)c1
15,0.001,Cc1cc(/C=C/C#N)cc(C)c1Oc1ccnc(Nc2ccc(C#N)cc2)n1
16,200,Nc1nc2c(ncn2C2C=CC(OCP(=O)(O)OP(=O)(O)C(Br)(Br)P(=O)(O)O)C2)c(=O)[nH]1 (centres undefined)
17,2,Nc1ncnc2c1ncn2C1C=CC(OCP(=O)(O)OP(=O)(O)OP(=O)(O)OP(=O)(O)COC2C=CC(n3cnc4c(N)ncnc43)C2)C1 (centres undefined)
18,20,Nc1ncnc2c1ncn2C1C=CC(OCP(=O)(O)OP(=O)(O)C(F)(F)P(=O)(O)OP(=O)(O)COC2C=CC(n3cnc4c(N)ncnc43)C2)C1 (centres undefined)
19,200,Nc1ncnc2c1ncn2C1C=CC(OCP(=O)(O)OP(=O)(O)C(Br)(Br)P(=O)(O)OP(=O)(O)COC2C=CC(n3cnc4c(N)ncnc43)C2)C1 (centres undefined)
20,25,Nc1nc2c(ncn2C2C=CC(OCP(=O)(O)OP(=O)(O)C(F)(F)P(=O)(O)O)C2)c(=O)[nH]1 (centres undefined)
21,0.004,Cc1cc(S(N)(=O)=O)ccc1NC(=O)COc1ccc(Cl)cc1C(=O)c1cc(F)cc(C(F)(F)F)c1
22,0.2,Nc1ncnc2c1ncn2C1C=CC(OCP(=O)(O)OP(=O)(O)OP(=O)(O)O)C1 (centres undefined)
23,5,CC(C)OC(=O)c1cn(S(=O)(=O)c2ccccc2)c2ccccc12
24,0.00063,Cc1cc(Br)c(Nc2ccnc(Nc3ccc(C#N)cc3)n2)c(Br)c1
25,66,NC(=O)c1cc2ccc(Cl)cc2n1S(=O)(=O)c1ccccc1
26,0.3,NC(=O)c1[nH]c2ccc(Cl)cc2c1S(=O)(=O)c1cc(Cl)ccc1N
27,0.006,Cc1cc(C)cc(Sc2c(C(N)=O)[nH]c3ccc(Cl)cc23)c1

row,IC50 [µM],Compound
1,200,NC(=O)c1cn(S(=O)(=O)c2ccccc2)c2cc(Cl)ccc12
2,13,NNC(=O)c1[nH]c2ccc(Cl)cc2c1Sc1cc(Cl)ccc1N
3,3.1,NC(=O)c1[nH]c2ccc(Cl)cc2c1Sc1ccc(Cl)cc1
4,0.004,Cc1ccc(S(=O)(=O)c2c(C(N)=O)[nH]c3ccc(Cl)cc23)c(C)c1
5,100,Cc1cn([C@H]2C=C[C@@](C)(CO)O2)c(=O)[nH]c1=O
6,0.44,Nc1ncnc2c1ncn2[C@@H]1O[C@H](CO)C=C1F
7,0.0003,CCOC(=O)Cc1c(N)nc(N)nc1OCCOCP(=O)(O)O
8,0.03,O=C1CSC(c2c(F)cccc2F)N1c1cccc(Br)n1 (centres undefined)
9,1.51,O=C1CSC(c2c(Cl)cccc2Cl)N1c1ccc(Br)cn1 (centres undefined)
10,0.09,Cc1cc(C)nc(N2C(=O)CSC2c2c(Cl)cccc2Cl)c1 (centres undefined)
11,19,CCn1cc(C(=O)CC(=O)C(=O)OC)c2ccccc21
12,200,CC(C)OC(=O)c1cn(S(=O)(=O)c2ccccc2)c2ccc(Cl)cc12
13,100,O=C(O)c1ccc2ccc(/C=C/c3ccco3)nc2c1O
14,100,O=C(O)c1ccc2ccc(/C=C/c3cccnc3)nc2c1O
15,1000,Nc1ncnc2c1ncn2C1C=CC(OCP(=O)(O)OP(=O)(O)C(Br)(Br)P(=O)(O)O)C1 (centres undefined)
16,5,NNC(=O)c1[nH]c2ccc(Cl)cc2c1Sc1ccc(F)cc1
17,0.018,Nc1nc(=O)n([C@@H]2C=C(F)[C@H](CO)O2)cc1F
18,100,Nc1nc(O)c2ncn([C@H]3CC(F)(F)[C@H](CO)O3)c2n1
19,0.7,Nc1nc2c(ncn2C2C=CC(OCP(=O)(O)OP(=O)(O)OP(=O)(O)OP(=O)(O)COC3C=CC(n4cnc5c(N)ncnc54)C3)C2)c(=O)[nH]1 (centres undefined)
20,100,OC[C@@H]1O[C@@H](n2cnc3c(O)ncnc32)CC1(F)F
21,100,OC[C@@H]1C=C(F)[C@@H](n2cnc3c(O)ncnc32)O1
22,100,O=c1nc(O)ccn1[C@@H]1C=C(F)[C@H](CO)O1
23,40,N#Cc1c(Cl)n([C@@H]2O[C@H](CF)[C@@H](O)[C@H]2O)c2cc(Cl)c(Cl)cc12
24,38.5,Nc1nc(O)c2ncn([C@@H]3C=C(F)[C@H](CO)O3)c2n1
25,100,Nc1nc(O)c2ncn([C@H]3C=C(F)[C@H](CO)O3)c2n1
26,4.3,Nc1nc(Cl)c2ncn([C@@H]3O[C@H](CO)C=C3F)c2n1
27,2.6,Nc1nc(O)c2ncn([C@@H]3O[C@H](CO)C=C3F)c2n1

row,IC50 [µM],Compound
1,11.5,Nc1ccn([C@@H]2CC(F)(F)[C@H](CO)O2)c(=O)n1
2,100,Nc1ccn([C@H]2CC(F)(F)[C@H](CO)O2)c(=O)n1
3,100,Nc1ccn([C@H]2O[C@H](CO)C=C2F)c(=O)n1
4,0.089,Nc1ccn([C@@H]2C=C(F)[C@H](CO)O2)c(=O)n1
5,43.5,Nc1nc(O)c2ncn([C@H]3S[C@@H](CO)C=C3F)c2n1
6,100,OC[C@@H]1O[C@H](n2cnc3c(O)ncnc32)CC1(F)F
7,100,Cc1cn([C@@H]2CC(F)(F)[C@H](CO)O2)c(=O)nc1O
8,100,O=c1nc(O)ccn1[C@@H]1CC(F)(F)[C@H](CO)O1
9,100,Cc1cn([C@H]2C=C(F)[C@H](CO)O2)c(=O)nc1O
10,32,C[C@H]1O[C@@H](n2c(Cl)c(C#N)c3cc(Cl)c(Cl)cc32)[C@H](O)[C@@H]1O
11,0.00063,Cc1cc(/C=C/C#N)ccc1Oc1ccnc(Nc2ccc(C#N)cc2)n1
12,100,Nc1ncnc2c1ncn2[C@@H]1CC(F)(F)[C@H](CO)O1
13,35,N#Cc1c(Cl)n([C@H]2C[C@H](O)[C@@H](CO)O2)c2cc(Cl)c(Cl)cc12
14,100,Cc1cn([C@@H]2C=C(F)[C@H](CO)O2)c(=O)nc1O
15,100,Cc1cn([C@@H]2O[C@H](CO)C=C2F)c(=O)nc1N
16,15,Nc1nc2c(ncn2C2C=CC(OCP(=O)(O)OP(=O)(O)C(F)(F)P(=O)(O)OP(=O)(O)COC3C=CC(n4cnc5c(N)ncnc54)C3)C2)c(=O)[nH]1 (centres undefined)
17,53.5,Cc1cccnc1N1C(=O)CSC1c1c(F)cccc1F (centres undefined)
18,100,Cc1cn([C@H]2C=C[C@@](C#CCl)(CO)O2)c(=O)[nH]c1=O
19,100,CCOC(=O)c1cc2ccccc2n1S(=O)(=O)c1cc(Cl)ccc1[N+](=O)[O-]
20,9,CCn1cc(C(=O)/C=C(/O)C(=O)O)c2ccccc21
21,0.855,O=C1CSC(c2c(F)cccc2F)N1c1ccccn1 (centres undefined)
22,37,Cn1cc(C(=O)/C=C(/O)C(=O)O)c2ccccc21
23,95.1,O=C1CSC(c2c(Cl)cccc2Cl)N1c1cccnc1 (centres undefined)
24,7,Cc1cn([C@H]2C=C[C@@](C#N)(CO)O2)c(=O)[nH]c1=O
25,100,Nc1nc(O)c2ncn([C@@H]3CC(F)(F)[C@H](CO)O3)c2n1
26,100,C=CC[C@@]1(CO)C=C[C@H](n2cc(C)c(=O)[nH]c2=O)O1
27,15.5,OC[C@H]1C=C(F)[C@@H](n2cnc3c(O)ncnc32)S1

row,IC50 [µM],Compound
1,200,CCOC(=O)c1cc2ccccc2n1S(=O)(=O)c1ccccc1[N+](=O)[O-]
2,11.5,Nc1nc(F)nc2c1ncn2[C@H]1S[C@@H](CO)C=C1F
3,100,Nc1ncnc2c1ncn2[C@H]1C=C(F)[C@H](CO)O1
4,100,Nc1ncnc2c1ncn2[C@H]1CC(F)(F)[C@H](CO)O1
5,100,OC[C@@H]1O[C@H](n2cnc3c(O)ncnc32)C=C1F
6,100,Nc1nc(=O)n([C@H]2O[C@H](CO)C=C2F)cc1F
7,100,Cc1cn([C@H]2O[C@H](CO)C=C2F)c(=O)nc1N
8,100,O=c1nc(O)ccn1[C@H]1CC(F)(F)[C@H](CO)O1
9,0.3,Nc1nc2c(ncn2C2C=CC(OCP(=O)(O)OP(=O)(O)OP(=O)(O)O)C2)c(=O)[nH]1 (centres undefined)
10,32,NC(=O)c1cn(S(=O)(=O)c2ccccc2)c2ccccc12
11,10,NNC(=O)c1[nH]c2ccc(Cl)cc2c1Sc1ccc(Cl)cc1
12,9,NC(=O)c1[nH]c2ccccc2c1Sc1cc(Cl)ccc1N
13,0.01,NNC(=O)c1[nH]c2ccc(Cl)cc2c1S(=O)(=O)c1ccccc1
14,8,CC(C)(C)c1ccc(Sc2c(C(N)=O)[nH]c3ccc(Cl)cc23)cc1
15,200,CCOC(=O)c1cc2ccc(Cl)cc2n1S(=O)(=O)c1ccc(Cl)cc1
16,0.001,Cc1cccc(S(=O)(=O)c2c(C(N)=O)[nH]c3ccc(Cl)cc23)c1
17,150,O=S(=O)(c1ccccc1)n1ccc2ccccc21
18,200,NNC(=O)c1cc2ccccc2n1S(=O)(=O)c1ccccc1
19,1.9,CC(C)c1ccc(Sc2c(C(N)=O)[nH]c3ccc(Cl)cc23)cc1
20,0.015,CC(=O)c1ccc2[nH]c(C(N)=O)c(S(=O)(=O)c3cc(C)cc(C)c3)c2c1
21,0.003,Cc1ccc(S(=O)(=O)c2c(C(N)=O)[nH]c3ccc(Cl)cc23)cc1
22,15,NC(=O)c1cc2ccccc2n1S(=O)(=O)c1ccccc1
23,200,CCOC(=O)c1cc2ccccc2n1S(=O)(=O)c1ccccc1
24,0.13,CC(C)(C)c1ccc(S(=O)(=O)c2c(C(N)=O)[nH]c3ccc(Cl)cc23)cc1

row,Compound,IC50 [µM]
1,O=Cc1c(Cl)n([C@@H]2O[C@H](CF)[C@@H](O)[C@H]2O)c2cc(Cl)c(Cl)cc12,20
2,C[C@H]1O[C@@H](n2c(Cl)c(C=O)c3cc(Cl)c(Cl)cc32)[C@H](O)[C@@H]1O,20
3,CC(=O)c1c(Cl)n([C@H]2C[C@H](O)[C@@H](CO)O2)c2cc(Cl)c(Cl)cc12,8
4,[N-]=[N+]=NC[C@H]1O[C@@H](n2c(Cl)c(C=O)c3cc(Cl)c(Cl)cc32)[C@H](O)[C@@H]1O,10
